Results as given in ChEMBL document CHEMBL3044995, “Synthesis of allylic trifluoromethyl ketones and their activity as inhibitors of the sex pheromone of the leopard moth, Zeuzera pyrina L. (Lepidoptera: Cossidae)” (Pest Manag Sci, 2011).
Values after ≈ are worked out from the molar mass of the structure shown. Active and inactive are the calls of the source. The rule behind the calls is not given here.

How the values were obtained:
Zeuzera pyrina [1] = assay: Effect on response of Zeuzera pyrina males to the calling female assessed as contact to female up to 10 ug by Wind tunnel assay; format: functional
Zeuzera pyrina [2] = assay: Inhibition of electroantennogram response of Zeuzera pyrina males to sex pheromone at 0.1 ug/antenna topical application by electrophysiology; format: functional, organism-based
Zeuzera pyrina [3] = assay: Inhibition of electroantennogram response of Zeuzera pyrina males to sex pheromone at 1 ug/antenna topical application by electrophysiology; format: functional
Zeuzera pyrina [4] = assay: Effect on response of Zeuzera pyrina males to the calling female assessed as flight towords source up to 10 ug by Wind tunnel assay; format: functional
Zeuzera pyrina [5] = assay: Effect on response of Zeuzera pyrina males to the calling female assessed as complete upwind fligts up to 10 ug by Wind tunnel assay; format: functional
Zeuzera pyrina [6] = assay: Effect on response of Zeuzera pyrina males to the calling female assessed as male took off up to 10 ug by Wind tunnel assay; format: functional
Zeuzera pyrina [7] = assay: Inhibition of electroantennogram response of Zeuzera pyrina males to sex pheromone at 0.5 ug/antenna topical application by electrophysiology; format: functional, organism-based
Zeuzera pyrina [8] = assay: Inhibition of electroantennogram response of Zeuzera pyrina males to sex pheromone at =>0.05 ug/antenna topical application by electrophysiology; format: functional, organism-based
Daphnia = assay: Toxicity in Daphnia assessed as survial; format: organism-based
[9] = Toxicity in Swiss Mus musculus (mouse) measured after 6 days; format: organism-based; details: in vivo

CCCC/C=C\CCCCCCCC/C=C/CCC(=O)C(F)(F)F
Activity (Zeuzera pyrina [1]): 55%
Activity (Zeuzera pyrina [2]): Active
inhibition (INH) (Zeuzera pyrina [3]): >80%
Activity (Zeuzera pyrina [4]): 62%
Activity (Zeuzera pyrina [5]): 55%
Activity (Zeuzera pyrina [6]): 95%

CCCC/C=C\CCCCCCCCC/C=C/CC(=O)C(F)(F)F
inhibition (Zeuzera pyrina [7]): Active
Activity (Zeuzera pyrina [2]): Active
inhibition (INH) (Zeuzera pyrina [3]): >80%
inhibition (Zeuzera pyrina [8]): Active

CCCC/C=C\CCCCCCCCCCC(=O)C(F)(F)F
EC50 (Daphnia): 0.07 µg/mL (≈ 0.218 µM)
LD50 at 144 h [9]: 1000 mg/kg

CCCCCCCCSCC(=O)C(F)(F)F
LD50 at 144 h [9]: 1000 mg/kg
